Measurements as given in patent US20210076677A1, “NOVEL PESTICIDAL COMBINATIONS” (priority 2017, published 2021).

Legend:
[1] = test system: Alternaria solani in tomato; assay: Field trial, early blight control in tomato (Colby synergy); type: in vivo; settings: 10 days after application, Mancozeb + Azoxystrobin 1750 g/ha, Chlorantriniprole 150 g/ha
Description: Studies were conducted to compare the efficacy of the combination of amide insecticides with fungicides selected from the various classes and to compare their observed efficacy with the ‘expected_ efficacy when amide insecticides and fungicides were used to treat fungal and insect pests. Any difference between the observed and ‘expected_ efficacy could be attributed to synergy between the two compounds in the control of fungal and insect pests. The expected efficacy of a combination of amide insecticides with fungicides was calculated using the well-established Colby method. […] An unexpected enhancement in efficacy of the combination is then determined by comparing the observed response of the combination to the expected (or predicted) response as calculated from the observed response of each individual component alone. If the observed response of the combination is greater than the expected (or predicted) response, or stated conversely, if the difference between the observed and expected response is greater than zero, then the combination is said to be synergistic or unexpectedly effective. (Colby, S. R., Weeds, 1967(15), p. 20-22) The Colby method requires only a single dose of each active applied alone and the mixture of both doses. The formula used to calculate the expected efficacy (EE) which was compared with the observed efficacy (OE) to determine the efficacy of the present invention is explained hereinbelow: […] The efficacy of the individual actives of the invention and their combinations were evaluated on various fungal and insect pests. The trial was carried out in Randomized Complete Block (RCB) method, all field trials were conducted using this method. Each trial was replicated three times and conducted under GEP guidelines. Application volumes were varied for each mixture. Such field trials were carried out at various locations so as to generate independent data, the locations were chosen randomly across India. […]

[2] = test system: Helicoverpa armigera in tomato; assay: Field trial, fruit borer control in tomato (Colby synergy); type: in vivo; settings: 10 days after application, Mancozeb + Azoxystrobin 1750 g/ha, Chlorantriniprole 150 g/ha
Description: Studies were conducted to compare the efficacy of the combination of amide insecticides with fungicides selected from the various classes and to compare their observed efficacy with the ‘expected_ efficacy when amide insecticides and fungicides were used to treat fungal and insect pests. Any difference between the observed and ‘expected_ efficacy could be attributed to synergy between the two compounds in the control of fungal and insect pests. The expected efficacy of a combination of amide insecticides with fungicides was calculated using the well-established Colby method.
In the Colby method, the expected (or predicted) response of a combination of actives is calculated by taking the product of the observed response for each individual component of the combination when applied alone divided by 100 and subtracting this value from the sum of the observed response for each component when applied alone. An unexpected enhancement in efficacy of the combination is then determined by comparing the observed response of the combination to the expected (or predicted) response as calculated from the observed response of each individual component alone. If the observed response of the combination is greater than the expected (or predicted) response, or stated conversely, if the difference between the observed and expected response is greater than zero, then the combination is said to be synergistic or unexpectedly effective. (Colby, S. R., Weeds, 1967(15), p. 20-22) The Colby method requires only a single dose of each active applied alone and the mixture of both doses. […]
The efficacy of the individual actives of the invention and their combinations were evaluated on various fungal and insect pests. […]
Further field trials were carried out to test the synergy of the combination amide […] chlorantriniprole in combination with fungicides for the control of Helicoverpa armigera in tomato. […] The percentage efficacy was calculated after 10 days of applications and the results are recorded in the table below: […]

`CNC(=O)c1cc(Cl)cc(C)c1NC(=O)c1cc(Br)nn1-c1ncccc1Cl` [Chlorantriniprole, chlorantraniliprole] was tested, and the “% Disease control, Early Blight Control in tomato 10DAA, Actual” value (shortened to “% Disease control, Early Blight Control”) ([1]; first trial (columns c2/c3)) was 1.91%, the “% Disease control, Early Blight Control” value ([1]; second trial (columns c4/c5)) was 1.86% and the “% Disease control, Early Blight Control” value ([1]; third trial (columns c6/c7)) was 2.70%. For the same compound, the “% control of pest, Fruit Borer control in tomato 10DAA, Actual” value (“% control of pest, Fruit Borer control” for short) ([2]; first trial (columns c2/c3)) was 75.8%, the “% control of pest, Fruit Borer control” value ([2]; second trial (columns c4/c5)) was 86.4% and the “% control of pest, Fruit Borer control” value ([2]; third trial (columns c6/c7)) was 88.4%.
